Test results: article PMC7710685 (Frontiers in Neuroscience, 2020)
“And” between values parts separate entries of the source, which are not always exact repeats. Equal values may be shown once. Read-outs that look alike come from different tables or passages of the source.

What was measured:
[1] = target: T1, human α1β2γ2 GABAA receptors (Homo sapiens, UniProt P14867+P18507+P47870); assay: cell-based; conditions: for EC50: EC50, γ2 (α1β2γ2), co-applied with GABA EC10; for Emax: γ2 (α1β2γ2), percent of current through GABA EC10, Hill fit
Text: (§1) To ensure homogenous receptor populations and subunit orientation, we used concatenated receptors expressed in X. laevis oocytes. Concatenated pentameric constructs were created using the subunits γx-β2-α1-β2-α1 (where x = 1, 2, or 3). […] Briefly, natural restriction sites BamHI, HindIII, and KpnI restriction sites in the γ1, 2, 3, β2, or α1 subunits were removed through silent mutations using site-directed mutagenesis. […] Inserted linker lengths are as follows γx-13a-β2-27a-α1-18a-β2-27a-α1.
(§2) The collection and preparation of oocytes were done as previously described ([Ahring et al., 2016]). […] Oocytes were prepared by slicing lobes into small pieces and defolliculated through collagenase A treatment. Stage V and VI oocytes were injected with around 50 nL of 0.5 ng/nL RNA for each concatenated construct or α1/β2 subunits in a 1:1 ratio and incubated for 3–4 days at 18°C in modified Barth’s solution (96 mM NaCl, 2.0 mM KCl, 1 mM MgCl2, 1.8 mM CaCl2, 5 mM HEPES, 2.5 mM sodium pyruvate, 0.5 mM theophylline, and 100 μg/mL gentamicin; pH 7.4).
(§3) This technique was performed as previously described ([Ahring et al., 2016], [2018]; [Liao et al., 2019]). Briefly, oocytes sit in a custom-built chamber and continuously perfused with a saline solution, ‘ND96’ (96 mM NaCl, 2 mM KCl, 1 mM MgCl2, 1.8 mM CaCl2, and 10 mM HEPES; pH 7.4). Glass electrode pipettes were filled with 3 M KCl, with resistances ranging from 0.4 to 2 MΩ. Oocytes were clamped to −60 mV using an Axon GeneClamp 500B amplifier (Molecular Devices). Currents were filtered at 20 Hz with a four-pole low pass Bessel filter (Axon GeneClamp 500 B) and digitized by a Digidata 1440A (Molecular Devices). Sampling was taken at 200 Hz and analyzed using pClamp 10.2 suite (Molecular Devices).
(§4) Each recording day, a fresh stock was used to prepare dilutions. The maximal concentration of DMSO in final drug ND96 solutions was <0.1%.
(§5) The drug modulation experiments were done as follows.
(§6) The final dataset was from a minimum of four experiments and a minimum of two different X. laevis donors. Raw traces were analyzed using pClamp 10.2. Episodic traces for each application were overlaid and the baseline was subtracted. Peak current amplitude was quantified by measuring maximum inward current for each response. Peak current amplitudes (I) were fitted to the Hill equation and normalized to the maximal fitted response (Imax). […] The Emax response and EC50 values were calculated by using non-linear regression to fit the data to the Hill equation in a monophasic model with three variables (top, bottom, EC50) using GraphPad Prism 8. Efficacy at infinitely low compound concentration was set to 0, and the slope was constrained to 1. Means are reported ± one SD.

[2] = target: T2, human α1β2γ3 GABAA receptors (Homo sapiens, UniProt P14867+P47870+Q99928); conditions: for Modulation at 10 μM: 10 μM co-applied with GABA EC10, percentage potentiation of GABA EC10
T2 sequence (Q99928 18-467): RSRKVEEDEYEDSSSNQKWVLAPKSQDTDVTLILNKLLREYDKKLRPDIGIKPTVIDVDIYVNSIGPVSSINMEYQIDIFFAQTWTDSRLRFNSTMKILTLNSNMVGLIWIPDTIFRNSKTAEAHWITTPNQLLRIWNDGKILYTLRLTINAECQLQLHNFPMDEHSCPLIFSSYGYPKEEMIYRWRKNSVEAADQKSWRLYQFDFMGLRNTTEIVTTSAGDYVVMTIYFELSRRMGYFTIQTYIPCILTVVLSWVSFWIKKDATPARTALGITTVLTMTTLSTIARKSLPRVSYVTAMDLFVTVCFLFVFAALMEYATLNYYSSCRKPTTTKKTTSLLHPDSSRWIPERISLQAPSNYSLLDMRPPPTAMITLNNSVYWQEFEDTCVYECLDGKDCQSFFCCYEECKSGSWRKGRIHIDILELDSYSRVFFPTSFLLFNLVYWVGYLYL
T2 sequence (P47870 25-512 limits assumed): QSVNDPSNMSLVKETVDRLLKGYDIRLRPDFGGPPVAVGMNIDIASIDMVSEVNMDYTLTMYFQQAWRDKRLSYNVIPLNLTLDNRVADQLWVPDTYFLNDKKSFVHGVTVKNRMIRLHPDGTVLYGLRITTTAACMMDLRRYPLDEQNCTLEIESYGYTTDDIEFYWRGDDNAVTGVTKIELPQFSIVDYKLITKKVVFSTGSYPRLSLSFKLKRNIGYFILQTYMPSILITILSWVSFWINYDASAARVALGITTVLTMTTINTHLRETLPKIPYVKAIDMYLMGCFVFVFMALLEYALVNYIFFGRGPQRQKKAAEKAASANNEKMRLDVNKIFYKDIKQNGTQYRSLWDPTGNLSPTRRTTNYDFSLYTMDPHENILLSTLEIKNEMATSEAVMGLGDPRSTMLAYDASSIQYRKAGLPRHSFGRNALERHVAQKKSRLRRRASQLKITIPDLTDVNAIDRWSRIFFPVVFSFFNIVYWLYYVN
T2 sequence (P14867 28-456): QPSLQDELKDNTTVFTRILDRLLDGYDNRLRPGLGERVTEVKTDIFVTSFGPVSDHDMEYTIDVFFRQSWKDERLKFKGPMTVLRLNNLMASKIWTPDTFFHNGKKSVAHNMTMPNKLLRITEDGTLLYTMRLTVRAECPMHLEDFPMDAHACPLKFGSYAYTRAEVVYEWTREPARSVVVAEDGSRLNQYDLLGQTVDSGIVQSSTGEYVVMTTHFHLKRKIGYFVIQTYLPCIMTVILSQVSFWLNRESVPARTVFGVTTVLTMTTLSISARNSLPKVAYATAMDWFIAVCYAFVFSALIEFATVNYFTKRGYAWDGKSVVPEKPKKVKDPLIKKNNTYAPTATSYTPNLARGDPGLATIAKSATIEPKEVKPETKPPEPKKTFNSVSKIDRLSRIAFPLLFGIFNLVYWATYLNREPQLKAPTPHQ
Text: as §1, §2, §3, §4, §5, §6

[3] = target: T3, human α1β2γ1 GABAA receptors (Homo sapiens, UniProt P14867+P47870+Q8N1C3); conditions: γ1 (α1β2γ1); for Modulation at 10 μM: 10 μM co-applied with GABA EC10, percentage potentiation of GABA EC10; for EC50: co-applied with GABA EC10; for Log(EC50): logarithm of EC50, mean ± SD; for Emax (%): percent of current through GABA EC10, Hill fit, 0.1 nM-10 μM
T3 sequence (Q8N1C3 36-465): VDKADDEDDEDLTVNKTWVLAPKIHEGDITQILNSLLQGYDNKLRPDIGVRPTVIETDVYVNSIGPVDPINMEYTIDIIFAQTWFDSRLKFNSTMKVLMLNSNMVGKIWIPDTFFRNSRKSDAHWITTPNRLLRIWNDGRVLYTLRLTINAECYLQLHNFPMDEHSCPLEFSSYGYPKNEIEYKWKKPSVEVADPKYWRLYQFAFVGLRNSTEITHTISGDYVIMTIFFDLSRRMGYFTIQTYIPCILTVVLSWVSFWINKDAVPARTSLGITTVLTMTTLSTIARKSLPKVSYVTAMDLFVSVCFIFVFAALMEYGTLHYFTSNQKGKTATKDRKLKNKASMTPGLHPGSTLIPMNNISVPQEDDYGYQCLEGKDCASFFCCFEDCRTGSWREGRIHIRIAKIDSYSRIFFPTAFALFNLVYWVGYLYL
T3 sequence (P47870 25-512 limits assumed): T2 sequence (P47870 25-512 limits assumed)
T3 sequence (P14867 28-456): T2 sequence (P14867 28-456)
Text: as §1, §2, §3, §4, §5, §6

[4] = target: T1, human α1β2γ2 GABAA receptors; conditions: γ2 (α1β2γ2); for Modulation at 10 μM: 10 μM co-applied with GABA EC10, percentage potentiation of GABA EC10; for Emax (%): percent of current through GABA EC10, Hill fit
Text: as §1, §2, §3, §4, §5, §6

[5] = target: T2, human α1β2γ3 GABAA receptors; assay: cell-based; conditions: for EC50: EC50, γ3 (α1β2γ3), co-applied with GABA EC10
Text: as §1, §2, §3, §4, §5, §6

[6] = target: recombinant α1β2γ3 GABAA receptors; set-up: method as in Lippa et al., 2005; conditions: ref Lippa et al., 2005, cited from earlier work
[7] = target: T1, human α1β2γ2 GABAA receptors; assay: GABA concentration-response, concatenated α1β2γ2 receptors in oocytes; type: cell-based; set-up: expressed in transfected cells; host or cells: Xenopus laevis oocytes injected with cRNA of the concatenated construct; conditions: γ2
Text: (§7) To ensure homogenous receptor populations and subunit orientation, we used concatenated receptors expressed in X. laevis oocytes. Concatenated pentameric constructs were created using the subunits γx-β2-α1-β2-α1 (where x = 1, 2, or 3).
(§8) The collection and preparation of oocytes were done as previously described ([Ahring et al., 2016]). Briefly, ovarian lobes were removed from anesthetized adult X. laevis following protocol approval by the Animal Ethics Committee of The University of Sydney (AEC No. 2016/970) in accordance with the National Health and Medical Research Council of Australia code for the care and use of animals. […]
(§9) This technique was performed as previously described ([Ahring et al., 2016], [2018]; [Liao et al., 2019]). […] Sampling was taken at 200 Hz and analyzed using pClamp 10.2 suite (Molecular Devices).
(§10) Applications lasted for 30 s and were followed by 2–5 min of washout. EC50 and EC10 were calculated from this curve.
(§11) The final dataset was from a minimum of four experiments and a minimum of two different X. laevis donors. Raw traces were analyzed using pClamp 10.2. […] Peak current amplitude was quantified by measuring maximum inward current for each response. […] The Emax response and EC50 values were calculated by using non-linear regression to fit the data to the Hill equation in a monophasic model with three variables (top, bottom, EC50) using GraphPad Prism 8. […]

[8] = target: T3, human α1β2γ1 GABAA receptors; conditions: γ1; GABA concentration-response
Text: as §7, §8, §9, §10, §11

γ3 GABAA receptors = conditions: competitive binding using Ro15-4513; ref Dämgen and Lüddens, 1999; cited from earlier work
α1β2γ3 receptors = tested on: α1β2γ3 receptors; set-up: method as in Davies et al., 2000; conditions: ref Davies et al., 2000; cited from earlier work

T1 sequence (P18507 40-475, one chain of several): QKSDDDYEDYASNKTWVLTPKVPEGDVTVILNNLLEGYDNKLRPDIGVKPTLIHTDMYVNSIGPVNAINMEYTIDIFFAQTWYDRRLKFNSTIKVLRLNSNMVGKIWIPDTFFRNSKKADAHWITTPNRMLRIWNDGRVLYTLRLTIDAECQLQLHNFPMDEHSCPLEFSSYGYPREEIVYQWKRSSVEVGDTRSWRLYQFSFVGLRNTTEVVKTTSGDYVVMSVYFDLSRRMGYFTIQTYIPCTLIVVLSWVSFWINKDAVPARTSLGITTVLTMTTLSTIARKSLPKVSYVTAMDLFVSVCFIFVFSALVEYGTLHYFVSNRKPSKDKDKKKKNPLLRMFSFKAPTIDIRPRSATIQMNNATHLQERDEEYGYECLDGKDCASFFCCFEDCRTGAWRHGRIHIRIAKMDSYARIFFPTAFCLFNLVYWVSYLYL

Compound | EC50 [1] | Modulation at 10 μM ([2]; γ3 (α1β2γ3)) [%] | Modulation at 10 μM [3] [%] | EC50 [3] | Log(EC50) [3] | Emax (%) [3] | Modulation at 10 μM [4] [%] | Emax [1] [%] | Emax [5] [%] | EC50 [5] | further results
CCCN(CCC)C(=O)Cc1c(-c2ccc(Cl)cc2)nc2ccc(Cl)cn12 [Alpidem, alpidem] | 0.5 µM and 0.502 µM | 126 ± 16 | 40 | No fit | No fit | No fit | 542 ± 176 | – | – | – | EC50 ([2]; γ3 (α1β2γ3), co-applied with GABA EC10): No fit; Log(EC50) ([2]; γ3 (α1β2γ3), logarithm of EC50, mean ± SD): No fit; Emax (%) ([2]; γ3 (α1β2γ3), percent of current through GABA EC10, Hill fit): No fit; Emax (%) [4]: 512 ± 80%; Emax (%) ([4]; listed as alpidem): 475–550%
CN1C(=O)CN=C(c2ccccc2)c2cc(Cl)ccc21 [Diazepam, diazepam] | – | 156 ± 35 | 43 ± 6 | – | – | No fit | 272 ± 46 | 284 ± 23 | 168 ± 24 | – | EC50 ([6]; recombinant α1β2γ3): 1.95 µM; Emax α1β2γ2 vs. α1β2γ3 [6]: no reduction in Emax; Modulation at 10 μM ([3]; listed as diazepam): 40%
CN1CCN(C(=O)O[C@H]2c3nccnc3C(=O)N2c2ccc(Cl)cn2)CC1 [Eszopiclone, eszopiclone] | 0.301 µM | 199 ± 26 | 18 ± 19 | No fit | No fit | No fit | 349 ± 70 | 356 ± 37 | 207 ± 20 | 0.554 µM | fold reduction in Emax when γ3 replaced γ2 ([2]; Emax α1β2γ2 vs α1β2γ3): 1.5 fold; Modulation at 10 μM ([3]; listed as eszopiclone): 20%
NCCCC(=O)O [GABA, γ-Aminobutyric-acid] | – | – | – | – | – | – | – | – | – | – | Hill slope [7]: 1.19 ± 0.55; Hill slope [8]: 1.22 ± 0.32
CC(=O)N(C)c1cccc(-c2ccnc3c(C(=O)c4cccs4)cnn23)c1 [Indiplon, indiplon] | 0.01 µM and 0.0131 µM | 249 ± 14 | 22 ± 7 | No fit | No fit | No fit | 238 ± 31 | 231 ± 18 | 263 ± 18 | 0.045 µM and 0.0478 µM | fold greater potency for γ2 vs. γ3 (fold reduction in potency when γ3 replaces γ2) ([2]; EC50 α1β2γ3 vs α1β2γ2): ~4 fold
CN1CCN(C(=O)OC2c3nccnc3C(=O)N2c2ccc(Cl)cn2)CC1 (stereo not drawn) [zopiclone] | – | – | – | – | – | – | – | – | – | – | binding affinity with γ3 compared with γ2 (γ3 GABAA receptors): marginal reduction in binding affinity; efficacy and potency at α1β2γ3 compared with α1β2γ2 (α1β2γ3 receptors): comparable efficacy and potency
